The compounds below were run on IL-1β production in PMA-differentiated THP-1 cells (assay: IL-1β production in PMA-differentiated THP-1 cells stimulated with gramicidin (hTHP-1 assay containing 2% fetal bovine serum; Procedures 1-3)). Settings: Homo sapiens, THP-1, hTHP-1 assay containing 2% fetal bovine serum; class symbols; read-out: hTHP-1 IC50 (Average IC50 of compounds in hTHP-1 assay).
Format: cell-based, human
In short: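 THP-1 cells differentiated with PMA (20 ng/ml, 16-18 h), replated in 2% FBS RPMI (50,000 cells/well), preincubated 1 h with compound (top final 100 μM, 3-fold steps, 0.37% DMSO), then stimulated 2 h with gramicidin (5 μM). Supernatant IL-1β measured by HTRF.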

Structure (SMILES) | IC50 [µM]
CCCc1cc(F)cc(CCC)c1CC(=O)N=S(N)(=O)c1cnc(C(C)(C)O)s1 (stereo not shown) [Example 95, N-(amino(2-(2-hydroxypropan-2-yl)thiazol-5-yl)(oxo)-λ^6-sulfaneylidene)-2-(4-fluoro-2,6-dipropylphenyl)acetamide] | 0.2 to 1
CC(C)c1ncc(F)c(C(C)C)c1CC(=O)N=S(N)(=O)c1nc(C(C)(C)O)cs1 (single isomer, unassigned) [Example 206, N-(amino(4-(2-hydroxypropan-2-yl)thiazol-2-yl)(oxo)-λ^6-sulfaneylidene)-2-(5-fluoro-2,4-diisopropylpyridin-3-yl)acetamide] | 0.2 to 1
CC(C)c1cc(F)cc(C(C)C)c1C(C)C(=O)N=S(N)(=O)c1cnc(C(C)(C)O)s1 (single isomer, unassigned) [Example 194, (R, S) or (R, R)-N-(amino(2-(2-hydroxypropan-2-yl)thiazol-5-yl)(oxo)-λ^6-sulfaneylidene)-2-(4-fluoro-2,6-diisopropylphenyl) propanamide] | 5 to 30
COCc1cc(C(C)C)c(CC(=O)N=S(N)(=O)c2cc(C(C)(C)O)cs2)c(C(C)C)c1 (stereo not shown) [Example 105, N-(amino(4-(2-hydroxypropan-2-yl)thiophen-2-yl)(oxo)-λ^6-sulfaneylidene)-2-(2,6-diisopropyl-4-(methoxymethyl)phenyl) acetamide] | 0.04 to 0.2
CC(C)c1cc(C#N)cc(C2CC2)c1CC(=O)N=S(N)(=O)c1ccc(CN(C)C)cc1 (single isomer, unassigned) [Example 75, (R)- or (S)-2-(4-cyano-2-cyclopropyl-6-isopropylphenyl)-N-(4-((dimethylamino)methyl)phenyl-sulfonimidoyl)acetamide] | 1 to 5
CC(C)c1cc2c(c(C(C)C)c1CC(=O)N=S(N)(=O)c1ccc(CN(C)C)cc1)COC2 (stereo not shown) [Example 134] | 1 to 5
CC(C)c1cc(-c2ccc(Cl)c(Cl)c2)cc(C(C)C)c1CC(=O)N=S(N)(=O)c1ncc(C(C)(C)O)s1 (stereo not shown) [Example 122, N-(amino(5-(2-hydroxypropan-2-yl)thiazol-2-yl)(oxo)-λ^6-sulfaneylidene)-2-(3′,4′-dichloro-3,5-diisopropyl-[1,1′-biphenyl]-4-yl)acetamide] | 0.2 to 1
CC(C)c1cc(C#N)cc(C2CC2)c1CC(=O)N=S(N)(=O)c1ccc(CN(C)C)cc1F (stereo not shown) [Example 32, 2-(4-cyano-2-cyclopropyl-6-isopropylphenyl)-N-(4-((dimethylamino)methyl)-2-fluorophenylsulfonimidoyl) acetamide] | 5 to 30
CC(C)c1cc(F)cc(C(C)C)c1CC(=O)NS(=N)(=O)c1ccc(C(C)(C)O)cc1 (single isomer, unassigned) [Example 2] | 1 to 5
CC(C)c1ccc(C#N)c(C(C)C)c1CC(=O)N=S(N)(=O)c1cnc(C(C)(C)O)s1 (stereo not shown) [Example 114, N-(amino(2-(2-hydroxypropan-2-yl)thiazol-5-yl)(oxo)-λ^6-sulfaneylidene)-2-(3-cyano-2,6-diisopropylphenyl)acetamide] | 1 to 5
CC(C)c1cc(OC(F)F)cc(C(C)C)c1CC(=O)N=S(N)(=O)c1sc(C(C)(C)O)cc1F (stereo not shown) [Example 21, 2-(4-(difluoromethoxy)-2,6-diisopropylphenyl)-N-(3-fluoro-5-(2-hydroxypropan-2-yl)thiophen-2-ylsulfonimidoyl)acetamide] | 0.04 to 0.2
COCc1cc(C(C)C)c(CC(=O)N=S(N)(=O)c2cnc(C(C)(C)O)s2)c(C(C)C)c1F (stereo not shown) [Example 109, N-(amino(2-(2-hydroxypropan-2-yl)thiazol-5-yl)(oxo)-λ^6-sulfaneylidene)-2-(3-fluoro-2,6-diisopropyl-4-(methoxymethyl)phenyl) acetamide] | 0.04 to 0.2
CC(C)c1cnc(F)c(C(C)C)c1CC(=O)N=S(N)(=O)c1cnc(C(C)(C)O)s1 (stereo not shown) [Example 154, N-(amino(2-(2-hydroxypropan-2-yl)thiazol-5-yl)(oxo)-λ^6-sulfaneylidene)-2-(2-fluoro-3,5-diisopropylpyridin-4-yl)acetamide] | 5 to 30
CC(C)c1cc(F)cc(C(C)C)c1CC(=O)N=S(=O)(NC(=O)Cc1c(C(C)C)cc(F)cc1C(C)C)c1ncc(C(C)(C)O)s1 (stereo not shown) [Example 10, N,N-(5-(2-hydroxypropan-2-yl)thiazol-2-ylsulfinyl)bis(2-(4-fluoro-2,6-diisopropylphenyl)acetamide)] | 5 to 30
CC(C)c1ccc(F)c(C(C)C)c1CC(=O)N=S(N)(=O)c1ccc(CN(C)C)cn1 (single isomer, unassigned) [Example 200, (R) or (S)-N-(amino(5-((dimethylamino)methyl)pyridin-2-yl)(oxo)-λ^6-sulfaneylidene)-2-(3-fluoro-2,6-diisopropylphenyl)acetamide] | 1 to 5
CC(C)c1cc(F)cc(C2CC2)c1CC(=O)N=S(N)(=O)c1ccc(CN(C)C)cc1 (stereo not shown) [Example 15, 2-(2-cyclopropyl-4-fluoro-6-isopropylphenyl)-N-(4-((dimethylamino)methyl)phenyl-sulfonimidoyl)acetamide] | 1 to 5
CC(C)c1nc(-c2cccc(C(F)(F)F)c2)c(F)c(C(C)C)c1CC(=O)N=S(N)(=O)c1cnc(C(C)(C)O)s1 (stereo not shown) [Example 100] | 0.2 to 1
CC(C)c1ccc(F)c(C(C)C)c1CC(=O)N=S(N)(=O)c1cc(C(C)(C)O)cs1 (stereo not shown) [Example 106, N-(amino(4-(2-hydroxypropan-2-yl)thiophen-2-yl)(oxo)-λ^6-sulfaneylidene)-2-(3-fluoro-2,6-diisopropylphenyl)acetamide] | 0.04 to 0.2
CC(C)c1cc(C#N)cc(C(C)C)c1CC(=O)N=S(N)(=O)c1ccc(CN(C)C)cc1 (single isomer, unassigned) [Example 72, (S)- or (R)-2-(4-cyano-2,6-diisopropylphenyl)-N-(4-((dimethylamino)methyl)phenyl-sulfonimidoyl)acetamide] | 1 to 5
CC(C)c1ccc(F)c(C(C)C)c1CC(=O)N=S(N)(=O)c1ccc(C(C)(C)O)s1 (stereo not shown) [Example 125, N-(amino(5-(2-hydroxypropan-2-yl)thiophen-2-yl)(oxo)-λ^6-sulfaneylidene)-2-(3-fluoro-2,6-diisopropylphenyl)acetamide] | 0.2 to 1
CC(C)c1nc(C(F)(F)F)nc(C(C)C)c1CC(=O)N=S(N)(=O)c1cnc(C(C)(C)O)s1 (stereo not shown) [Example 153, N-(amino(2-(2-hydroxypropan-2-yl)thiazol-5-yl)(oxo)-λ^6-sulfaneylidene)-2-(4,6-diisopropyl-2-(trifluoromethyl)pyrimidin-5-yl)acetamide] | 1 to 5
Cc1ncc(C(C)C)c(CC(=O)N=S(N)(=O)c2sc(C(C)(C)O)cc2F)c1C(C)C (stereo not shown) [Example 150, N-(amino(3-fluoro-5-(2-hydroxypropan-2-yl)thiophen-2-yl)(oxo)-λ^6-sulfaneylidene)-2-(3,5-diisopropyl-2-methylpyridin-4-yl)acetamide] | 5 to 30

Same assay, conditions: Homo sapiens, THP-1, hTHP-1 assay containing 2% fetal bovine serum; given as numeric bound; read-out: hTHP-1 IC50 (Average IC50 of compounds in hTHP-1 assay)

Structure (SMILES) | IC50 [µM]
CC(C)c1cc(F)cc(C(C)C)c1CC(=O)NS(=N)(=O)c1ccc(C(C)(C)O)cc1 (single isomer, unassigned) [Example 3] | > 30
CC(C)c1cc(C#N)cc(C(C)C)c1CC(=O)N=S(N)(=O)c1ccc(CN(C)C)cc1 (single isomer, unassigned) [Example 73, (R)- or (S)-2-(4-cyano-2,6-diisopropylphenyl)-N-(4-((dimethylamino)methyl)phenyl-sulfonimidoyl)acetamide] | > 30
CC(C)c1cc(F)cc(C2CC2)c1CC(=O)N=S(N)(=O)c1ccc(CN(C)C)cc1 (single isomer, unassigned) [Example 46, (S)- or (R)-2-(2-cyclopropyl-4-fluoro-6-isopropylphenyl)-N-(4-((dimethylamino)methyl)phenyl-sulfonimidoyl)acetamide] | > 30
CC(C)c1cncc(C(C)C)c1CC(=O)NS(=O)(=O)c1sc(C(C)(C)O)nc1CO [Example 92, 2-(3,5-diisopropylpyridin-4-yl)-N-((4-(hydroxymethyl)-2-(2-hydroxypropan-2-yl)thiazol-5-yl)sulfonyl)acetamide] | > 30
CNS(=O)(=NC(=O)Cc1c2c(cc3c1CCC3)CCC2)c1ncc(C(C)(C)O)s1 (stereo not shown) [Example 12, 2-(1,2,3,5,6,7-Hexahydro-s-indacen-4-yl)-N-(5-(2-hydroxypropan-2-yl)-N-methylthiazole-2-sulfonimidoyl)acetamide] | > 30

Same assay, conditions: hTHP-1 assay containing 2% fetal bovine serum; class symbols; read-out: hTHP-1 IC50 (Average IC50 of compounds in hTHP-1 assay)

Structure (SMILES) | IC50 [µM]
CC(C)c1cc(-c2ccc(Cl)c(Cl)c2)cc(C(C)C)c1CC(=O)N=S(N)(=O)c1ncc(C(C)(C)O)s1 (single isomer, unassigned) [Example 170, (R) or (S)-N-(amino(5-(2-hydroxypropan-2-yl)thiazol-2-yl)(oxo)-λ^6-sulfaneylidene)-2-(3′,4′-dichloro-3,5-diisopropyl-[1,1′-biphenyl]-4-yl)acetamide] | 0.2 to 1
CC(C)c1c(F)c(C#N)cc(C2CC2)c1CC(=O)N=S(N)(=O)c1sc(C(C)(C)O)cc1F (single isomer, unassigned) [Example 54, (S)- or (R)-2-(4-cyano-6-cyclopropyl-3-fluoro-2-isopropylphenyl)-N-(3-fluoro-5-(2-hydroxypropan-2-yl)thiophen-2-ylsulfonimidoyl)acetamide] | 0.008 to 0.04
CC(C)c1cc(C#N)cc(C(C)C)c1CC(=O)N=S(N)(=O)c1ccc(C(C)(C)O)cc1Cl (single isomer, unassigned) [Example 156, (S) or (R)-N-(amino(2-chloro-4-(2-hydroxypropan-2-yl)phenyl)(oxo)-λ^6-sulfaneylidene)-2-(4-cyano-2,6-diisopropylphenyl)acetamide] | 0.2 to 1
CC(C)c1cc(F)cc(C(C)C)c1CC(=O)N=S(N)(=O)c1sc(C(C)(C)O)cc1F (single isomer, unassigned) [Example 50, (S)- or (R)-2-(4-fluoro-2,6-diisopropylphenyl)-N-(3-fluoro-5-(2-hydroxypropan-2-yl)thiophen-2-ylsulfonimidoyl)acetamide] | 0.008 to 0.04

Reference: patent US11370763B2, “Compounds and compositions for treating conditions associated with NLRP activity” (Novartis AG, priority 2017, dated 2022)
